Measurements taken from patent US7687079B2, “Methods of treating ileus” (priority 2002, dated 2010).

How the values were obtained:
IL-10 mRNA = test: Example 3 IL-10 mRNA by SYBR green real time RT-PCR; assay type: in vivo, mouse; conditions: IM-CO mice
Method: Ileus was induced in mice by gentle manipulation of the small intestine. An incision was made to expose the abdominal cavity of the mouse, and bowel manipulation was performed by gentle poking and prodding of the small intestine (see, e.g., Schwarz et al., Gastroenterology 121(6):1354-1357 (2001)). […] Mice were exposed to CO by inhalation (250 and 500 ppm) for 1 hour immediately prior to intestinal manipulation and during the entire 24-hour recovery period. Intestinal contractility was assessed in vitro by measuring circular muscle strip contractions in response to bethanechol (0.3-300 μM) and in vivo by determining intestinal transit from the distribution of orally-fed, fluorescein-labeled dextran and calculating geometric center as described in Example 1 above. HO-1 and IL-10 mRNA expression were determined by SYBR green real time RT-PCR from extracts of muscularis extemae, as described in Example 1 above. Release of nitric oxide (NO), a potent inhibitor of smooth muscle contractility, was estimated by measuring serum total nitrite, also described in Example 1 above.

[1] = tested on: pigs with ileus induced by mild manipulation of the small intestine; test: intestinal transit of steel ball bearings after IM in pig model; assay type: in vivo; conditions: CO 250 ppm for 3 hr prior to IM
Method: Similar experiments were performed in a pig model. Ileus was induced by mild manipulation of the small intestine (IM). Pigs were exposed to CO (250 ppm) or air (controls) for a period of 3 hr prior to IM. Gastrointestinal function was assessed in vivo by observing intestinal transit of steel ball bearings placed within the small intestine.

IL-1β mRNA = IL-1β mRNA expression in muscularis externae of intestinal grafts; assay type: in vivo, rat
Method: To investigate the sequential analysis of cytokine mRNA expression in the mucosa and muscularis, RNase protection assay was performed with the Riboquant™ kit (Pharmingen) according to the protocol of the manufacturer. […] Quantification of radioactivity of mRNA bands was performed with NIH Image, normalized to GAPDH, and expressed as a ratio of cytokine /GAPDH (n=3-4).
The effects of inhalation of CO on transplant-induced pro-inflammatory and anti-inflammatory gene expression was assessed in muscularis extracts by RT-PCR. […] Equal aliquots (5 μg) of total RNA from each sample were quantified by spectrophotometry (wavelength […]) and aliquoted at a concentration of 40 ng/μl. Peak mRNA expression was quantified in duplicate by SYBR Green two-step, real-time RT-PCR. […] Real-time PCR data were plotted as the ΔRn, fluorescence signal versus the cycle number. […] Quantification of mRNA expression was normalized to GAPDH and calculated relative to control using the comparative CT method (Schmittgen et al., J. Biochem. Biophys. Methods 46(1-2):69-8 (2000)). […]

## [C-]#[O+] [CO, carbon monoxide]
IL-10 mRNA
  IL-10 expression versus controls: 35 fold
[1]
  intestinal transit: improve
IL-1β mRNA; SITx + CO, Table 2
  IL-1β mRNA: 6.6 + 0.1 % GAPDH
IL-1β mRNA; SITx recipients treated with CO vs SITx, 4 hours after reperfusion, p=0.046
  reduction of mean relative IL-1β mRNA expression: 50%
